Results taken from publication PMC4910235, “Selenophene and thiophene-core estrogen receptor ligands that inhibit motility and development of parasitic stages of Haemonchus contortus” (Parasites & Vectors, 2016).
“Also recorded” adds a separate entry of the source.

Key:
ERα = biological target: T1, ERα (Homo sapiens, UniProt P03372); assay: 3×ERE-luciferase reporter gene assay in HEK 293 T cells, ERα; type: cell-based
T1 construct: expressed in transfected cells; host or cells: HEK 293 T
T1 sequence (P03372 1-595): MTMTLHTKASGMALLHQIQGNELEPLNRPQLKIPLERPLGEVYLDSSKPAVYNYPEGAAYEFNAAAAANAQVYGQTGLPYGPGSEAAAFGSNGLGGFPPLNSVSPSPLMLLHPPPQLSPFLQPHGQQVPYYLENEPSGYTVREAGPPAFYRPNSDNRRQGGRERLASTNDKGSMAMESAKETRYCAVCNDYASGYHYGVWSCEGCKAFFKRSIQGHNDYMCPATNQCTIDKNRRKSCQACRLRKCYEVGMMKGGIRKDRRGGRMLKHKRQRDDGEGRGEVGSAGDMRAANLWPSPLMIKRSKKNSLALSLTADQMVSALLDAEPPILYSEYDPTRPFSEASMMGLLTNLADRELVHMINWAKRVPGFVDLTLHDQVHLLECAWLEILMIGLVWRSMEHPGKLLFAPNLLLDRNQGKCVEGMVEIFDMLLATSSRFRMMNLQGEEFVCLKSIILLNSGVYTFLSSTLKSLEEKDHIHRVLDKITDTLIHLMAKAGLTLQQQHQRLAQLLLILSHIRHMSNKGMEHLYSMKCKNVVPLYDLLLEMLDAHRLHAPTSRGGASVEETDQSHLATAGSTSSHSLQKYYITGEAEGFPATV
Procedure: (§1) Cells in phenol red-free DMEM with 10 % FBS were plated. […] The next day, the cells were treated with increasing doses of ER ligands diluted in phenol red-free DMEM with 10 % FBS. After 24 h, luciferase activity was measured using the dual-luciferase reporter assay system (Promega, Fitchburg, USA) performed according to the manufacturer’s protocol.

[1] = biological target: T2, human ERα ligand binding domain (Homo sapiens, UniProt P03372); assay: Competitive fluorometric receptor-binding assay, ERα; settings: estradiol = 100 %; fluorescence polarisation, coumestrol tracer
T2 sequence (P03372 311-547 limits assumed): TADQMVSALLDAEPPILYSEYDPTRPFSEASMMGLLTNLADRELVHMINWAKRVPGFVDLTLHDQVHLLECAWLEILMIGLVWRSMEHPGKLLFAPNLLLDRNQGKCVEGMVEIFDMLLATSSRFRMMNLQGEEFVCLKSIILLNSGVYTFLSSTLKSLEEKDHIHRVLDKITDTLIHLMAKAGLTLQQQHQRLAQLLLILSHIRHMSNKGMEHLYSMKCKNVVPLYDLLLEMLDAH
Procedure: (§2) Relative binding affinities were determined by a competitive fluorometric binding assay, as described previously. Briefly, 40 nM fluorescence tracer (coumestrol, Sigma-Aldrich) and 0.8 μM purified human ERα or ERβ ligand binding domain were diluted in 100 mM potassium phosphate buffer (pH 7.4), containing 100 μg/ml bovine γ-globulin (Sigma-Aldrich), and an equal volume of test compound was added. Incubation was for 2 h at 25 °C. The fluorescence polarisation values were measured. […] The values given are the average ± range of two independent determinations. IC50 values were calculated using a published formula [29].

ERβ = biological target: T3, ERβ (Homo sapiens, UniProt Q92731); assay: 3×ERE-luciferase reporter gene assay in HEK 293 T cells, ERβ; type: cell-based
T3 construct: expressed in transfected cells; host or cells: HEK 293 T
Procedure: as §1

[2] = biological target: human ERβ ligand binding domain (Homo sapiens, UniProt Q92731); assay: Competitive fluorometric receptor-binding assay, ERβ; settings: estradiol = 100 %; fluorescence polarisation, coumestrol tracer
Procedure: as §2

[3] = percentage of 10^-8 M 17β-estradiol, mean ± SD

T3 sequence (Q92731 whole entry): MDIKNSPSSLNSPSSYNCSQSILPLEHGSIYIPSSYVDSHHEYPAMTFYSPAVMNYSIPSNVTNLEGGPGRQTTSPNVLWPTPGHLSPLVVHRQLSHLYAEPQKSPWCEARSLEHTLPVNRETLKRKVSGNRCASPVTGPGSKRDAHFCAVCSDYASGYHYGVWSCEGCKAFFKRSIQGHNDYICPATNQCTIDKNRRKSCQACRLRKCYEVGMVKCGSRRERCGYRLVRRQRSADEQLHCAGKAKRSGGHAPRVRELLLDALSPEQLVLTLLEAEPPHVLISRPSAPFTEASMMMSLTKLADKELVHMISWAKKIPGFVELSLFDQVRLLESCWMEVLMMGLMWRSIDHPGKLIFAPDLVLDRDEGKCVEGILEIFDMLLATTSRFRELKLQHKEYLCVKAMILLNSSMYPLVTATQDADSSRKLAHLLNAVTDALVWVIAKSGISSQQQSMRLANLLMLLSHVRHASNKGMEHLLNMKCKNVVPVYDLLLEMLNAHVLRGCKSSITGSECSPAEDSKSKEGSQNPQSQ
Chain of human ERβ ligand binding domain (Q92731 264-498 limits assumed): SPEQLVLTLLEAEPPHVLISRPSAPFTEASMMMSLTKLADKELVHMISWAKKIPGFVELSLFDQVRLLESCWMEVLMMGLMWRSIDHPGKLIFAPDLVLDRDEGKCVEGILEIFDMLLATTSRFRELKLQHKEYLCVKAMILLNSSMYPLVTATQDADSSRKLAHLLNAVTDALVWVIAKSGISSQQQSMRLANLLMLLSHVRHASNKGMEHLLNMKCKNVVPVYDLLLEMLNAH

Q: For Cc1cc(O)ccc1-c1ccc(-c2ccc(O)cc2F)s1 [MJ-22], which “profile on ERα (agonist/antagonist)” value (ERα; luciferase reporter) is on record?
A: Its value is “super-agonist; also recorded: agonists”.

Q: What does the source list for Oc1ccc(-c2ccc(-c3ccc(O)cc3Cl)[se]2)c(Cl)c1 [WZY-2]?
A: IC50 (ERα; against 10^-8 M E2, read-out: Antagonist mode ERα IC50): > 10 µM; EC50 (ERα; doses up to 10^-5 M, read-out: Agonist mode ERα EC50): > 10 µM; Agonist mode ERα Efficacy (%E2) (ERα; [3]): -21 ± 13 %E2; Antagonist mode ERα Efficacy (%E2) (ERα; [3]): 73 ± 8 %E2; relative binding affinity (RBA) ERα [1]: 6.11%; IC50 (ERβ; against 10^-8 M E2, read-out: Antagonist mode ERβ IC50): 3.02 µM; EC50 (ERβ; doses up to 10^-5 M, read-out: Agonist mode ERβ EC50): > 10 µM; profile on ERβ (agonist/antagonist) (ERβ; luciferase reporter): antagonist; Antagonist mode ERβ Eff (%E2) (ERβ; [3]): 13.9 ± 5.3 %E2; relative binding affinity (RBA) ERβ [2]: 12.7%
